Consider twelve compounds from US20220177508A1, “C10-Cyclic Substituted 13-Membered Macrolides and Uses Thereof” (Zikani Therapeutics, Inc., priority 2018, published 2022).

≈ marks a conversion by molar mass, not a printed value. Where only a bound is given, the exact number is not on record here.

Common to all, as to format: cell-based
One test relates to S. aureus MP-12. Kind of test: Broth dilution MIC determination (CLSI), S. aureus MP-12. The note with it: Staphylococcus aureus, MP12; strain MP-12, broth dilution. For orientation: In broth dilution the organism is exposed to a series of concentrations in liquid medium.
For a further test, the system named is E. coli MP-4. Nature of the test: Broth dilution MIC determination (CLSI), E. coli MP-4. The note with it: Escherichia coli, MP4; strain MP-4, broth dilution; read-out: MIC E. coli MP-4.
In a further test the test system is K. pneumoniae MP-546. Nature of the test: Broth dilution MIC determination (CLSI), K. pneumoniae MP-546. The note with it: Klebsiella pneumoniae, MP546; strain MP-546, broth dilution.
The subject of another test is K. pneumoniae MP-648. Kind of test: Broth dilution MIC determination (CLSI), K. pneumoniae MP-648. The note with it: Klebsiella pneumoniae, MP648; strain MP-648, broth dilution.
A further test deals with P. aeruginosa MP-3. Kind of test: Broth dilution MIC determination (CLSI), P. aeruginosa MP-3. The note with it: Pseudomonas aeruginosa, MP3; strain MP-3, broth dilution.
The subject of the next test is A. baumannii MP-15. Kind of test: Broth dilution MIC determination (CLSI), A. baumannii MP-15. The note with it: Acinetobacter baumannii, MP15; strain MP-15, broth dilution; read-out: MIC A. baumanii MP-15.

With `CO[C@]1(C)C[C@@H](C)CN(C)[C@H](C2CN(CC3CC3)C2)COC(=O)C(C)(C)C(=O)[C@H](C)[C@H]1O[C@@H]1O[C@H](C)C[C@H](N(C)C)[C@H]1O` [Compound 37, (3R,6R,8R,9R,10R)-3-(1-(cyclopropylmethyl)azetidin-3-yl)-9-(((2S,3R,4S,6R)-4-(dimethylamino)-3-hydroxy-6-methyltetrahydro-2H-pyran-2-yl)oxy)-8-methoxy-4,6,8,10,12,12-hexamethyl-1-oxa-4-azacyclotridecane-11,13-dione], the minimum inhibitory concentration (MIC) (in general, the lowest concentration that inhibits growth of the organism) is 4 to 32 µg/mL (≈ 6.56 to 52.5 µM) in the test on S. aureus MP-12; less than 4 µg/mL in the test on E. coli MP-4; less than 4 µg/mL in the test on K. pneumoniae MP-546; 4 to 32 µg/mL (≈ 6.56 to 52.5 µM) in the test with K. pneumoniae MP-648; greater than 32 µg/mL against P. aeruginosa MP-3; greater than 32 µg/mL with A. baumannii MP-15.
In the case of `CO[C@]1(C)C[C@@H](C)CN(C)[C@H](C2CN(C(=O)CNC(C)(C)C)C2)COC(=O)C(C)(C)C(=O)[C@H](C)[C@H]1O[C@@H]1O[C@H](C)C[C@H](N(C)C)[C@H]1O` [Compound 41, (3R,6R,8R,9R,10R)-3-(1-(tert-butylglycyl)azetidin-3-yl)-9-(((2S,3R,4S,6R)-4-(dimethylamino)-3-hydroxy-6-methyltetrahydro-2H-pyran-2-yl)oxy)-8-methoxy-4,6,8,10,12,12-hexamethyl-1-oxa-4-azacyclotridecane-11,13-dione], the MIC against S. aureus MP-12 was 4 to 32 µg/mL (≈ 5.98 to 47.8 µM); with E. coli MP-4, less than 4 µg/mL; against K. pneumoniae MP-546, less than 4 µg/mL; against K. pneumoniae MP-648, 4 to 32 µg/mL (≈ 5.98 to 47.8 µM); with P. aeruginosa MP-3, greater than 32 µg/mL; with A. baumannii MP-15 it was greater than 32 µg/mL.
As for `CO[C@]1(C)C[C@@H](C)CN(C)[C@H](C2CN(Cc3cnn(C)c3)C2)COC(=O)C(C)(C)C(=O)[C@H](C)[C@H]1O[C@@H]1O[C@H](C)C[C@H](N(C)C)[C@H]1O` [Compound 49, (3R,6R,8R,9R,10R)-9-(((2S,3R,4S,6R)-4-(dimethylamino)-3-hydroxy-6-methyltetrahydro-2H-pyran-2-yl)oxy)-8-methoxy-4,6,8,10,12,12-hexamethyl-3-(1-((1-methyl-1H-pyrazol-4-yl)methyl)azetidin-3-yl)-1-oxa-4-azacyclotridecane-11,13-dione], the minimal inhibitory concentration (MIC) against S. aureus MP-12 is 4 to 32 µg/mL (≈ 6.16 to 49.2 µM); with E. coli MP-4, less than 4 µg/mL; in the test with K. pneumoniae MP-546, less than 4 µg/mL; in the test with K. pneumoniae MP-648, 4 to 32 µg/mL (≈ 6.16 to 49.2 µM); in the test on P. aeruginosa MP-3 it was greater than 32 µg/mL; with A. baumannii MP-15, greater than 32 µg/mL.
For `CO[C@]1(C)C[C@@H](C)CN(C)[C@H](C2CN(C(=O)CCN(C)C)C2)COC(=O)C(C)(C)C(=O)[C@H](C)[C@H]1O[C@@H]1O[C@H](C)C[C@H](N(C)C)[C@H]1O` [Compound 50, (3R,6R,8R,9R,10R)-9-(((2S,3R,4S,6R)-4-(dimethylamino)-3-hydroxy-6-methyltetrahydro-2H-pyran-2-yl)oxy)-3-(1-(3-(dimethylamino)propanoyl)azetidin-3-yl)-8-methoxy-4,6,8,10,12,12-hexamethyl-1-oxa-4-azacyclotridecane-11,13-dione], the MIC was 4 to 32 µg/mL (≈ 6.11 to 48.9 µM) against S. aureus MP-12; 4 to 32 µg/mL (≈ 6.11 to 48.9 µM) in the test with E. coli MP-4; 4 to 32 µg/mL (≈ 6.11 to 48.9 µM) against K. pneumoniae MP-546; 4 to 32 µg/mL (≈ 6.11 to 48.9 µM) against K. pneumoniae MP-648; greater than 32 µg/mL in the test with P. aeruginosa MP-3; greater than 32 µg/mL in the test with A. baumannii MP-15.
Turning to `CO[C@]1(C)C[C@@H](C)CN(C)[C@H](C2CN(CCC(C)C)C2)COC(=O)C(C)(C)C(=O)[C@H](C)[C@H]1O[C@@H]1O[C@H](C)C[C@H](N(C)C)[C@H]1O` [Compound 51, (3R,6R,8R,9R,10R)-9-(((2S,3R,4S,6R)-4-(dimethylamino)-3-hydroxy-6-methyltetrahydro-2H-pyran-2-yl)oxy)-3-(1-isopentylazetidin-3-yl)-8-methoxy-4,6,8,10,12,12-hexamethyl-1-oxa-4-azacyclotridecane-11,13-dione], the MIC in the test with S. aureus MP-12 was 4 to 32 µg/mL (≈ 6.39 to 51.1 µM); with E. coli MP-4 it was less than 4 µg/mL; in the test with K. pneumoniae MP-546 it was less than 4 µg/mL; against K. pneumoniae MP-648 it was 4 to 32 µg/mL (≈ 6.39 to 51.1 µM); against P. aeruginosa MP-3 it was greater than 32 µg/mL; with A. baumannii MP-15 it was 4 to 32 µg/mL (≈ 6.39 to 51.1 µM).
Regarding `CO[C@]1(C)C[C@@H](C)CN(C)[C@H](C2CN(Cc3cnccn3)C2)COC(=O)C(C)(C)C(=O)[C@H](C)[C@H]1O[C@@H]1O[C@H](C)C[C@H](N(C)C)[C@H]1O` [Compound 55, (3R,6R,8R,9R,10R)-9-(((2S,3R,4S,6R)-4-(dimethylamino)-3-hydroxy-6-methyltetrahydro-2H-pyran-2-yl)oxy)-8-methoxy-4,6,8,10,12,12-hexamethyl-3-(1-(pyrazin-2-ylmethyl)azetidin-3-yl)-1-oxa-4-azacyclotridecane-11,13-dione], the MIC against S. aureus MP-12 is 4 to 32 µg/mL (≈ 6.17 to 49.4 µM); in the test with E. coli MP-4, 4 to 32 µg/mL (≈ 6.17 to 49.4 µM); in the test on K. pneumoniae MP-546 it was 4 to 32 µg/mL (≈ 6.17 to 49.4 µM); with K. pneumoniae MP-648, greater than 32 µg/mL; against P. aeruginosa MP-3, greater than 32 µg/mL; in the test on A. baumannii MP-15, greater than 32 µg/mL.
Turning to `CCCN1C[C@H](C)C[C@@](C)(OC)[C@H](O[C@@H]2O[C@H](C)C[C@H](N(C)C)[C@H]2O)[C@@H](C)C(=O)C(C)(C)C(=O)OC[C@H]1[C@H]1C[C@H](N(C)CC(C)C)C1` [Compound 60, (3R,6R,8R,9R,10R)-9-(((2S,3R,4S,6R)-4-(dimethylamino)-3-hydroxy-6-methyltetrahydro-2H-pyran-2-yl)oxy)-3-((1r,3R)-3-(isobutyl(methyl)amino)cyclobutyl)-8-methoxy-6,8,10,12,12-pentamethyl-4-propyl-1-oxa-4-azacyclotridecane-11,13-dione], the minimum inhibitory concentration (MIC) with S. aureus MP-12 was 4 to 32 µg/mL (≈ 5.99 to 47.9 µM); with E. coli MP-4, less than 4 µg/mL; in the test with K. pneumoniae MP-546 it was 4 to 32 µg/mL (≈ 5.99 to 47.9 µM); against K. pneumoniae MP-648, 4 to 32 µg/mL (≈ 5.99 to 47.9 µM); against P. aeruginosa MP-3 it was greater than 32 µg/mL; in the test with A. baumannii MP-15, greater than 32 µg/mL.
As to `CO[C@]1(C)C[C@@H](C)CN(C)[C@H](C2CN(C(=O)CCCN(C)CC3CC3)C2)COC(=O)C(C)(C)C(=O)[C@H](C)[C@H]1O[C@@H]1O[C@H](C)C[C@H](N(C)C)[C@H]1O` [Compound 61, (3R,6R,8R,9R,10R)-3-(1-(4-((cyclopropylmethyl)(methyl)amino)butanoyl)azetidin-3-yl)-9-(((2S,3R,4S,6R)-4-(dimethylamino)-3-hydroxy-6-methyltetrahydro-2H-pyran-2-yl)oxy)-8-methoxy-4,6,8,10,12,12-hexamethyl-1-oxa-4-azacyclotridecane-11,13-dione], the minimum inhibitory concentration (MIC) is greater than 32 µg/mL against S. aureus MP-12; 4 to 32 µg/mL (≈ 5.64 to 45.1 µM) with E. coli MP-4; 4 to 32 µg/mL (≈ 5.64 to 45.1 µM) in the test on K. pneumoniae MP-546; greater than 32 µg/mL in the test with K. pneumoniae MP-648; greater than 32 µg/mL with P. aeruginosa MP-3; greater than 32 µg/mL in the test with A. baumannii MP-15.
Take `CO[C@]1(C)C[C@@H](C)CN(C)[C@@H](C2CCN(CC3CCC3)CC2)COC(=O)C(C)(C)C(=O)[C@H](C)[C@H]1O[C@@H]1O[C@H](C)C[C@H](N(C)C)[C@H]1O` [Compound 69, (3S,6R,8R,9R,10R)-3-(1-(cyclobutylmethyl)piperidin-4-yl)-9-(((2S,3R,4S,6R)-4-(dimethylamino)-3-hydroxy-6-methyltetrahydro-2H-pyran-2-yl)oxy)-8-methoxy-4,6,8,10,12,12-hexamethyl-1-oxa-4-azacyclotridecane-11,13-dione]: the MIC was 4 to 32 µg/mL (≈ 6.14 to 49.1 µM) with S. aureus MP-12; less than 4 µg/mL in the test with E. coli MP-4; less than 4 µg/mL against K. pneumoniae MP-546; 4 to 32 µg/mL (≈ 6.14 to 49.1 µM) against K. pneumoniae MP-648; greater than 32 µg/mL against P. aeruginosa MP-3; greater than 32 µg/mL with A. baumannii MP-15.
In the case of `CCN(C)[C@H]1C[C@H]([C@@H]2COC(=O)C(C)(C)C(=O)[C@H](C)[C@@H](O[C@@H]3O[C@H](C)C[C@H](N(C)C)[C@H]3O)[C@](C)(OC)C[C@@H](C)CN2C)C1` [Compound 71, (3R,6R,8R,9R,10R)-9-(((2S,3R,4S,6R)-4-(dimethylamino)-3-hydroxy-6-methyltetrahydro-2H-pyran-2-yl)oxy)-3-((1r,3R)-3-(ethyl(methyl)amino)cyclobutyl)-8-methoxy-4,6,8,10,12,12-hexamethyl-1-oxa-4-azacyclotridecane-11,13-dione], the minimal inhibitory concentration (MIC) is 4 to 32 µg/mL (≈ 6.54 to 52.3 µM) in the test on S. aureus MP-12; 4 to 32 µg/mL (≈ 6.54 to 52.3 µM) in the test on E. coli MP-4; less than 4 µg/mL with K. pneumoniae MP-546; less than 4 µg/mL against K. pneumoniae MP-648; greater than 32 µg/mL in the test with P. aeruginosa MP-3; greater than 32 µg/mL in the test on A. baumannii MP-15.
As to `CO[C@]1(C)C[C@@H](C)CN(C)[C@@H](C2CCN(C[C@H]3COC(C)(C)O3)CC2)COC(=O)C(C)(C)C(=O)[C@H](C)[C@H]1O[C@@H]1O[C@H](C)C[C@H](N(C)C)[C@H]1O` [Compound 86, (3S,6R,8R,9R,10R)-3-(1-(((S)-2,2-dimethyl-1,3-dioxolan-4-yl)methyl)piperidin-4-yl)-9-(((2S,3R,4S,6R)-4-(dimethylamino)-3-hydroxy-6-methyltetrahydro-2H-pyran-2-yl)oxy)-8-methoxy-4,6,8,10,12,12-hexamethyl-1-oxa-4-azacyclotridecane-11,13-dione], the minimal inhibitory concentration (MIC) against S. aureus MP-12 was 4 to 32 µg/mL (≈ 5.73 to 45.8 µM); in the test with E. coli MP-4, less than 4 µg/mL; in the test on K. pneumoniae MP-546, less than 4 µg/mL; in the test on K. pneumoniae MP-648, 4 to 32 µg/mL (≈ 5.73 to 45.8 µM); with P. aeruginosa MP-3 it was greater than 32 µg/mL; in the test with A. baumannii MP-15, greater than 32 µg/mL.
As for `CCCN1C[C@H](C)C[C@@](C)(OC)[C@H](O[C@@H]2O[C@H](C)C[C@H](N(C)C)[C@H]2O)[C@@H](C)C(=O)C(C)(C)C(=O)OC[C@H]1[C@H]1C[C@H](N(C)CC)C1` [Compound 94, (3R,6R,8R,9R,10R)-9-(((2S,3R,4S,6R)-4-(dimethylamino)-3-hydroxy-6-methyltetrahydro-2H-pyran-2-yl)oxy)-3-((1r,3R)-3-(ethyl(methyl)amino)cyclobutyl)-8-methoxy-6,8,10,12,12-pentamethyl-4-propyl-1-oxa-4-azacyclotridecane-11,13-dione], the MIC with S. aureus MP-12 is 4 to 32 µg/mL (≈ 6.25 to 50 µM); in the test on E. coli MP-4, less than 4 µg/mL; in the test on K. pneumoniae MP-546, less than 4 µg/mL; against K. pneumoniae MP-648 it was 4 to 32 µg/mL (≈ 6.25 to 50 µM); against P. aeruginosa MP-3, greater than 32 µg/mL; in the test on A. baumannii MP-15, greater than 32 µg/mL.
